Data taken from US20250011725A1, “TISSUE-[…] CERAMIC TEMPLATE AND USES THEREOF” (Osteogene Bio Inc., priority 2023, published 2025).

Legend:
Type in all cases: cell-based
[1] = tested on: co-cultured osteoblast precursor MC3T3 and osteosarcoma cells; assay: survival index of co-cultured cells after doxorubicin, 2D static culture on culture plate without PCT; conditions: 0.5 mg/ml doxorubicin
Text: (§1) FIG. 37 depicts comparison of survival index of co-cultured cells onto a culture plate for 2D static culture without a porous ceramic template (PCT), 3D static culture using a PCT, and 3D dynamic culture using a PCT after treated with doxorubicin (DOX: therapeutic drug) for designated time. In this example, osteoblast precursor MC3T3 with 2.5×10^5 cell population and osteosarcoma with 1×10^5 cell population are deployed onto a 12 well culture plate for the 2D static culture. 2.5×10^5 MC3T3 cell and 1×10^5 osteosarcoma are also seeded onto a PCT that is placed in a 12 well culture plate for the 3D static culture. For the 3D dynamic culture, 2.5×10^5 MC3T3 cell and 1×10^5 osteosarcoma were seeded onto a PCT and held for two days under static culture condition, then relocated into a culture column and subjected to dynamic culture with doxorubicin (therapeutic agent) using a peristaltic perfusion pump. […] In this regard, the 3D dynamic culture system is considered an effective alternative method of mimicking in vivo cancer model for performing a therapeutic agent test and/or screening.

[2] = tested on: co-cultured osteoblast precursor MC3T3 and osteosarcoma cells; assay: survival index of co-cultured cells after doxorubicin, 3D static culture using a PCT; conditions: 3D static culture on PCT, 0.5 mg/ml doxorubicin
Text: as §1

[3] = tested on: co-cultured osteoblast precursor MC3T3 and osteosarcoma cells; assay: survival index of co-cultured cells after doxorubicin, 3D dynamic culture using a PCT (perfusion bioreactor)
Text: FIG. 33 depicts a bioreactor system suitable for performing a therapeutic agent treatment test according to embodiments of the present disclosure. Reference numeral 902 represents a co-cultured 3D cancer model platform 902 including a PCT 101 (such as the one resulting from the co-culturing discussed above in connection with FIGS. 32A and 32B). The 3D cancer model platform 902 is inserted into a culture column 903 for dynamic therapeutic agent treatment. The culture column 903 is connected with a medium vessel 904 that is filled with a medium in which a therapeutic agent 901 is dissolved. Afterwards, a dynamic therapeutic agent treatment is employed for up to, but not limited to, about seven days. In an exemplary embodiment, the therapeutic agent 901 includes Doxorubicin with a concentration of about 0.5 mg/ml. However, the present disclosure is suitable for cancer treatment with various therapeutic agents including but not limited to Cisplatin, Methotrexate, Ifosfamide, Actinomycin D, Bleomycin, Vincristine, Cyclophosphamide, Paclitaxel, Carboplatin, or a combination of two more of the foregoing agents. In an exemplary embodiment, a flow rate of the therapeutic agent 901 medium into the culture column 903 is about 5 ml/min for about five minutes per day. […]

## COc1cccc2c1C(=O)c1c(O)c3c(c(O)c1C2=O)C[C@@](O)(C(=O)CO)C[C@@H]3O[C@H]1C[C@H](N)[C@H](O)[C@H](C)O1 [doxorubicin]
[1]
  survival index compared to control: significant reduction
[2]
  survival index compared to control: significant reduction
[3]; 3D dynamic culture on PCT, 0.5 mg/ml doxorubicin, 5 ml/min flow rate for five minutes per day, three days
  reduction of survival index compared to control: not significant
[3]; after doxorubicin treatment
  cell survival index, 3D dynamic culture in comparison with 3D static culture: significantly higher
